Laboratory results taken from BindingDB's records for doi:10.1016/j.bmcl.2012.08.044 (Lundbeck Research Usa, 2012).

Assays:
[1] = target: Cytochrome P450 3A4 (Homo sapiens, UniProt P08684); assay: Inhibition of CYP3A4
[2] = target: Cytochrome P450 2D6 (Homo sapiens, UniProt P10635); assay: Inhibition of CYP2D6
Chain of Cytochrome P450 2D6 (P10635 whole entry): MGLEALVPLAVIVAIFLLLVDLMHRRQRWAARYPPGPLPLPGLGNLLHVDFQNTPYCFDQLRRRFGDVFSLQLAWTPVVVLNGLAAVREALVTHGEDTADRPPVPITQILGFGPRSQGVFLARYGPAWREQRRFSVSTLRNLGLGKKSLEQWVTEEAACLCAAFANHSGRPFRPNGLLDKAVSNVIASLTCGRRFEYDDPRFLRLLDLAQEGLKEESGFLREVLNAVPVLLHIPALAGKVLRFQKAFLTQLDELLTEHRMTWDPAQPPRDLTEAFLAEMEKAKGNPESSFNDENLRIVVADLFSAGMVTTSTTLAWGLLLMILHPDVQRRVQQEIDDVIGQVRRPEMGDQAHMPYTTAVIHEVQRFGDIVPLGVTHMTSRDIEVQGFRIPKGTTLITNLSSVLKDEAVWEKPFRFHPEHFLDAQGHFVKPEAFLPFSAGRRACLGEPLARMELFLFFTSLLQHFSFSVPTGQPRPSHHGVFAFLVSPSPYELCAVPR

Chain of Cytochrome P450 3A4 (P08684 whole entry): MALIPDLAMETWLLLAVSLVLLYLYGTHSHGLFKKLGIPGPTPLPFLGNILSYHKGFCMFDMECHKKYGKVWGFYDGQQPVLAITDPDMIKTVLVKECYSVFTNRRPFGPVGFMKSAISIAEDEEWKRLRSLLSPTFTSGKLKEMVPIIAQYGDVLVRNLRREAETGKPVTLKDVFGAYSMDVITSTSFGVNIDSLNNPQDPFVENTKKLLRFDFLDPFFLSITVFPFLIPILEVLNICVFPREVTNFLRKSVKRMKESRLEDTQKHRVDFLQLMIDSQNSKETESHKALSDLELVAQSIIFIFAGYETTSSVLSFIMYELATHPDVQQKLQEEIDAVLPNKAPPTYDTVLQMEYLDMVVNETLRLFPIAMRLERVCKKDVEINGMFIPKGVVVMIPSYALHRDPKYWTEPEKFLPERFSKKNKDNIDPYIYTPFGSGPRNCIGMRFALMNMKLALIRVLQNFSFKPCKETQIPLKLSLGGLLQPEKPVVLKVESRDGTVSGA

O=C(C1CCC(F)(F)CC1)N1CC(c2nc(-c3cccc(Cl)c3)no2)C1
IC50 [1]: 25 µM
IC50 [2]: 33 µM

CC1CCCCC1C(=O)N1CC(c2nc(-c3cccc(F)c3)no2)C1 (centres undefined)
IC50 [1]: 25 µM
IC50 [2]: 40 µM
